Experiments:
Opioid, non-selective = assay: Cross activity at neuroreceptors (Caliper LifeSciences): opioid; assay type: binding; details: determined by Caliper LifeSciences; read-out: Affinity Opioid, non-selective (IC50)
Experimental: (§1) The test compounds were solubilised in DMSO and diluted in 50 mmol/L Tris-HCl (pH 8.0). Membrane homogenates were prepared from male Sprague-Dawley rat brains as previously described. The binding of σ ligands to σ1 and σ2 receptors was determined according to literature methods with minor modification. Briefly, the percentage of inhibition was determined by incubating, in triplicate, aliquots of diluted rat brain membrane (300 μg of protein) with 10^-11 to 10^-5 mol/L concentrations of the studied drugs in 50 mmol/L Tris-HCl (pH 8.0) with ^3H-(+)-pentazocine (3 nmol/L) at 37°C for 2.5 h for σ1 receptors or with ^3H-DTG (10 nmol/L) and (+)-pentazocine (1 μmol/L) at 25°C for 1.5 h for σ2 receptors. […] After incubation, the reaction was terminated by rapid filtration using a Brandel 48-well cell harvester (Brandel, Gaithersburg, MD, USA) over Whatman GF/B glass fibre filters that were soaked in a solution of 0.5% polyethyleneimine at 4°C for at least 2 h before use. […] The filters were collected and the amount of bound radioactivity was measured using a β-scintillation counter (Tri-Carb 2100TR, Packard Instrument Co., Downers Grove, IL, USA). The percentage inhibition of the studied drugs, at concentrations of 10^-5 and 10^-7 mol/L, was also determined for the cross activity at a number of other neuroreceptors (Caliper LifeSciences, MA, USA). […]

[1] = biological target: Muscarinic, non-selective; assay: Cross activity at neuroreceptors (Caliper LifeSciences): muscarinic; assay type: binding; details: determined by Caliper LifeSciences; read-out: Affinity Muscarinic, non-selective (IC50)
Experimental: as §1

CB1, non-selective = biological target: T1, CB1, non-selective (Homo sapiens, UniProt P21554); assay: Cross activity at neuroreceptors (Caliper LifeSciences): CB1; assay type: binding; details: determined by Caliper LifeSciences; read-out: Affinity CB1, non-selective (IC50)
T1 construct: Caliper LifeSciences
T1 sequence (P21554 whole entry): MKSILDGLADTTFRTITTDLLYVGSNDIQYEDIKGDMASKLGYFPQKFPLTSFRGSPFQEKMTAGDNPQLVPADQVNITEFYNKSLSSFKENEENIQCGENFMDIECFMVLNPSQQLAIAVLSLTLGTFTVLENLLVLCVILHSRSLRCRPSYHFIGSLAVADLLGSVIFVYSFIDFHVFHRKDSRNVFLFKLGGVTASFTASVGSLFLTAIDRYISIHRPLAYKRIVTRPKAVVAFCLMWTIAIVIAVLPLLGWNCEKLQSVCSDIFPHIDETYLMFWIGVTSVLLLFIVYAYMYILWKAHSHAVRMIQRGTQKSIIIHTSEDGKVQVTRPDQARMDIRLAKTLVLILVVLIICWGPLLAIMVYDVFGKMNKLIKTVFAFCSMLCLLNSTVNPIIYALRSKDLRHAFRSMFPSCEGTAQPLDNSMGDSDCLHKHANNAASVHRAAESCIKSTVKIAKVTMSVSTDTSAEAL
Experimental: as §1

σ2 receptors = biological target: T2, σ2 receptors (Rattus norvegicus, UniProt Q5U3Y7); assay: Radioreceptor binding assay, σ2 (3H-DTG + (+)-pentazocine, rat brain membrane); details: for Ki: rat brain membrane, 3H-DTG with (+)-pentazocine, determined by ANSTO LifeSciences, read-out: Affinity σ2 (Ki); for Selectivity σ2:σ1: ratio of Ki values, Table 2
T2 sequence (Q5U3Y7 1-176): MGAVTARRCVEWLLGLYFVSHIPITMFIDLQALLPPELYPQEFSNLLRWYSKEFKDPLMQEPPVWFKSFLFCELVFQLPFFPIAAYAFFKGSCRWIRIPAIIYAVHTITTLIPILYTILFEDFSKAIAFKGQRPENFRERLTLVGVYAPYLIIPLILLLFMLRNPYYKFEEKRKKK
Experimental: The test compounds were solubilised in DMSO and diluted in 50 mmol/L Tris-HCl (pH 8.0). Membrane homogenates were prepared from male Sprague-Dawley rat brains as previously described. The binding of σ ligands to σ1 and σ2 receptors was determined according to literature methods with minor modification. Briefly, the percentage of inhibition was determined by incubating, in triplicate, aliquots of diluted rat brain membrane (300 μg of protein) with 10^-11 to 10^-5 mol/L concentrations of the studied drugs in 50 mmol/L Tris-HCl (pH 8.0) with ^3H-(+)-pentazocine (3 nmol/L) at 37°C for 2.5 h for σ1 receptors or with ^3H-DTG (10 nmol/L) and (+)-pentazocine (1 μmol/L) at 25°C for 1.5 h for σ2 receptors. […] After incubation, the reaction was terminated by rapid filtration using a Brandel 48-well cell harvester (Brandel, Gaithersburg, MD, USA) over Whatman GF/B glass fibre filters that were soaked in a solution of 0.5% polyethyleneimine at 4°C for at least 2 h before use. Filters were washed three times with 5 mL of ice-cold wash buffer (50 mmol/L Tris HCl, pH 7.4). The filters were collected and the amount of bound radioactivity was measured using a β-scintillation counter (Tri-Carb 2100TR, Packard Instrument Co., Downers Grove, IL, USA). The percentage inhibition of the studied drugs, at concentrations of 10^-5 and 10^-7 mol/L, was also determined for the cross activity at a number of other neuroreceptors (Caliper LifeSciences, MA, USA). The IC50 values were then converted to apparent Ki values using the Cheng-Prusoff equation and radioligand Kd values.

σ1 receptors = biological target: T3, σ1 receptors (Rattus norvegicus, UniProt Q9R0C9); assay: Radioreceptor binding assay, σ1 (3H-(+)-pentazocine, rat brain membrane); details: determined by ANSTO LifeSciences, read-out: Affinity σ1 (Ki)
T3 construct: aliquots of diluted rat brain membrane (300 μg of protein); from tissue; host or cells: male Sprague-Dawley rat brain membrane homogenate
T3 sequence (Q9R0C9 whole entry): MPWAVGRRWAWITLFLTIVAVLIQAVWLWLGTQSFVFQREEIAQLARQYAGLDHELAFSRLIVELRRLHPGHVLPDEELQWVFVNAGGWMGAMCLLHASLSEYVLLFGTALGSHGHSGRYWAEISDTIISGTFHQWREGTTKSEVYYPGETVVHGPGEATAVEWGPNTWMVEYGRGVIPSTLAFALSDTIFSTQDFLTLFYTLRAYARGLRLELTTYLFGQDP
Experimental: as §1

[2] = Lipophilicity by RP-HPLC (logP7.5); assay type: physicochemical; details: logP7.5, phosphate buffer pH 7.5
Experimental: The lipophilicity of SIG343 and SIG353 were assessed using RP-HPLC by determining the logP7.5 value using literature procedures.

Dopamine, non-selective = assay: Cross activity at neuroreceptors (Caliper LifeSciences): dopamine; assay type: binding; details: determined by Caliper LifeSciences; read-out: Affinity Dopamine, non-selective (IC50)
Experimental: as §1

Serotonin, non-selective = assay: Cross activity at neuroreceptors (Caliper LifeSciences): serotonin; assay type: binding; details: determined by Caliper LifeSciences; read-out: Affinity Serotonin, non-selective (IC50)
Experimental: as §1

[3] = rats, intravenous bolus; cited from earlier work

In the case of COc1cc2c(cc1OC)CN(CCCCN1C(=O)c3ccc(F)cc3C1=O)CC2 [SIG343, 2-(4-(6,7-Dimethoxy-3,4-dihydroisoquinolin-2(1H)-yl)butyl)-5-fluoroisoindoline-1,3-dione], the IC50 (Opioid, non-selective) is reported as over 10 µM, the IC50 [1] is reported as over 10 µM and the IC50 (CB1, non-selective) is reported as over 10 µM. The Ki (σ2 receptors) was 0.008 µM, the “Selectivity σ2:σ1” value (σ2 receptors) was 200 and the Ki (σ1 receptors) was 1.6 µM. It also gave a chromatographic logP [2] of 3.11 ± 0.08, an IC50 (Dopamine, non-selective) of over 10 µM and an IC50 (Serotonin, non-selective) of over 10 µM.

COc1cc2c(cc1OC)CN(CCCCCN1C(=O)c3ccc(F)cc3C1=O)CC2 [SIG353, 2-(5-(6,7-Dimethoxy-3,4-dihydroisoquinolin-2(1H)-yl)pentyl)-5-fluoroisoindoline-1,3-dione] showed an IC50 (Opioid, non-selective) of over 10 µM, an IC50 [1] of over 10 µM and an IC50 (CB1, non-selective) of over 10 µM. For the same compound, the Ki (σ2 receptors) was 0.0024 µM, the “Selectivity σ2:σ1” value (σ2 receptors) was 110 and the Ki (σ1 receptors) was 0.266 µM. For the same compound, the chromatographic logP [2] was 3.47 ± 0.09, the IC50 (Dopamine, non-selective) was over 10 µM and the IC50 (Serotonin, non-selective) was over 10 µM.

In the case of O=C(CCCN1CCC(O)(c2ccc(Cl)cc2)CC1)c1ccc(F)cc1 [haloperidol], the Terminal half-life [3] is given as 1.5 h.

From paper PMC3878827, “Synthesis and biological characterisation of ^18F-SIG343 and ^18F-SIG353, novel and high selectivity σ2 radiotracers, for tumour imaging properties” (EJNMMI Research, 2013)
